Experimental data taken from PubChem BioAssay (NCI).
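Here, GI50 denotes the concentration required for 50% inhibition of growth. TGI denotes the concentration required for complete inhibition of growth.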

How the values were obtained:
Experiment in all cases: NCI-60 cell line screen, 384-well format
[1] = system: HT29 colon
[2] = system: MDA-MB-468 breast
[3] = system: 786-0 renal
[4] = system: SNB-19 CNS
[5] = system: BT-549 breast
[6] = system: OVCAR-5 ovarian
[7] = system: NCI-H23 lung
[8] = system: TK-10 renal
[9] = system: UO-31 renal
[10] = system: K-562 leukemia
[11] = system: ACHN renal
[12] = system: SK-MEL-28 melanoma
[13] = system: UACC-62 melanoma
[14] = system: RPMI-8226 leukemia
[15] = system: NCI/ADR-RES ovarian
[16] = system: MALME-3M melanoma
[17] = system: HCT-116 colon
[18] = system: NCI-H460 NSCLC
[19] = system: HL-60(TB) leukemia
[20] = system: IGROV1 ovarian
[21] = system: SR leukemia
[22] = system: SK-OV-3 ovarian
[23] = system: KM12 colon
[24] = system: MCF7 breast
[25] = system: UACC-257 melanoma
[26] = system: MDA-MB-231 breast
[27] = system: COLO 205 colon
[28] = system: HCT-15 colon
[29] = system: NCI-H226 lung
[30] = system: A498 renal
[31] = system: NCI-H522 lung
[32] = system: MOLT-4 leukemia
[33] = system: OVCAR-3 ovarian
[34] = system: SK-MEL-2 melanoma
[35] = system: T-47D breast
[36] = system: RXF 393 renal
[37] = system: SN12C renal
[38] = system: HCC-2998 colon
[39] = system: LOX IMVI melanoma
[40] = system: DU-145 prostate
[41] = system: CCRF-CEM leukemia
[42] = system: SF-268 CNS
[43] = system: OVCAR-4 ovarian
[44] = system: OVCAR-8 ovarian
[45] = system: NCI-H322M lung
[46] = system: PC-3 prostate
[47] = system: SW-620 colon
[48] = system: A549 NSCLC
[49] = system: M14 melanoma
[50] = system: CAKI-1 renal
[51] = system: HOP-92 NSCLC
[52] = system: HOP-62 NSCLC
[53] = system: SK-MEL-5 melanoma
[54] = system: SF-295 CNS
[55] = system: MDA-MB-435 melanoma
[56] = system: U251 glioblastoma
[57] = system: SF-539 CNS

`COc1cccc2c1C(=O)c1c(O)c3c(c(O)c1C2=O)C[C@@](O)(/C(CO)=N/NC(=O)CCCCCN1C(=O)C=CC1=O)C[C@@H]3O[C@H]1C[C@H](N)[C@H](O)[C@H](C)O1` was tested, and the GI50 [1] was 148 nM, the TGI [1] was 780 nM and the GI50 [2] was 44.8 nM. It also gave a TGI [2] of 169 nM, a GI50 [3] of 110 nM and a TGI [3] of 368 nM. It also gave a GI50 [4] of 127 nM, a TGI [4] of 553 nM and a GI50 [5] of 59.9 nM. For the same compound, the TGI [5] was 271 nM, the GI50 [6] was 522 nM and the TGI [6] was 3000 nM. For the same compound, the GI50 [7] was 166 nM, the TGI [7] was 381 nM and the GI50 [8] was 225 nM. For the same compound, the TGI [8] was 1040 nM, the GI50 [9] was 1260 nM and the TGI [9] was 3130 nM. The GI50 [10] was 114 nM, the TGI [10] was 1060 nM and the GI50 [11] was 258 nM. The TGI [11] was 1360 nM, the GI50 [12] was 126 nM and the TGI [12] was 519 nM. It also gave a GI50 [13] of 75.9 nM, a TGI [13] of 233 nM and a TGI [14] of 173 nM. For the same compound, the GI50 [15] was 12300 nM, the TGI [15] was 44900 nM and the GI50 [16] was 152 nM. The TGI [16] was 403 nM, the GI50 [17] was 74.9 nM and the TGI [17] was 626 nM. The GI50 [18] was 25.2 nM, the TGI [18] was 136 nM and the GI50 [19] was 15.1 nM. It also gave a TGI [19] of 29.4 nM, a GI50 [20] of 346 nM and a TGI [20] of 2480 nM. For the same compound, the TGI [21] was 15.7 nM, the GI50 [22] was 138 nM and the TGI [22] was 339 nM. For the same compound, the GI50 [23] was 116 nM, the TGI [23] was 295 nM and the GI50 [24] was 93.6 nM. The TGI [24] was 377 nM, the GI50 [25] was 180 nM and the TGI [25] was 552 nM. The GI50 [26] was 62.5 nM, the TGI [26] was 206 nM and the GI50 [27] was 36.6 nM. For the same compound, the TGI [27] was 183 nM, the GI50 [28] was 470 nM and the TGI [28] was 3110 nM. It also gave a GI50 [29] of 122 nM, a TGI [29] of 288 nM and a GI50 [30] of 95.8 nM. For the same compound, the TGI [30] was 1440 nM, the GI50 [31] was 29.4 nM and the TGI [31] was 148 nM. For the same compound, the GI50 [32] was 10.9 nM, the TGI [32] was 23 nM and the GI50 [33] was 159 nM. The TGI [33] was 686 nM, the GI50 [34] was 101 nM and the TGI [34] was 229 nM. For the same compound, the GI50 [35] was 61.5 nM, the TGI [35] was 280 nM and the GI50 [36] was 45.2 nM. For the same compound, the TGI [36] was 228 nM, the GI50 [37] was 139 nM and the TGI [37] was 391 nM. The GI50 [38] was 123 nM, the TGI [38] was 294 nM and the GI50 [39] was 166 nM. It also gave a TGI [39] of 381 nM, a GI50 [40] of 152 nM and a TGI [40] of 365 nM. The GI50 [41] was 15.3 nM, the TGI [41] was 34 nM and the GI50 [42] was 71.4 nM. For the same compound, the TGI [42] was 372 nM, the GI50 [43] was 243 nM and the TGI [43] was 716 nM. It also gave a GI50 [44] of 141 nM, a TGI [44] of 1310 nM and a GI50 [45] of 917 nM. It also gave a TGI [45] of 2680 nM, a GI50 [46] of 407 nM and a TGI [46] of 1940 nM. It also gave a GI50 [47] of 59.3 nM, a TGI [47] of 829 nM and a GI50 [48] of 98 nM. The TGI [48] was 1430 nM, the GI50 [49] was 72.6 nM and the TGI [49] was 258 nM. It also gave a GI50 [50] of 155 nM, a TGI [50] of 1060 nM and a GI50 [51] of 37 nM. It also gave a TGI [51] of 247 nM, a GI50 [52] of 103 nM and a TGI [52] of 273 nM. For the same compound, the GI50 [53] was 124 nM, the TGI [53] was 328 nM and the GI50 [54] was 154 nM. For the same compound, the TGI [54] was 470 nM, the GI50 [55] was 268 nM and the TGI [55] was 1480 nM. It also gave a GI50 [56] of 50.4 nM, a TGI [56] of 188 nM and a GI50 [57] of 38.7 nM. It also gave a TGI [57] of 140 nM.
